For series [1], the system named is CD206+ macrophages. Put plainly: MR imaging in mouse model of cutaneous wound healing. It is filed as in vivo. Particulars: 45-75 min post-injection, wildtype mice.
Series [2] deals with M1/M2 macrophages and HEK293 cells. Put plainly: ICP-MS of gadolinium on cells incubated with agent. It counts as cell-based. How it is done:
M1 and M2 differentiated macrophages were incubated with 1 mM of Mann2-DTPA-Gd for 1 h at 4° C. After washing with PBS (×3), cells were collected, digested with nitric acid (70%, 200 μL) overnight and subjected to ICP-MS to detect the amount of Gd.
M1 and M2 polarized differentiation. Raw 264.7 cells (Passage 8 from the cell core of center for Systems Biology at Massachusetts General Hospital, Boston) in 10 mL petri dishes were cultured with Dulbecco's modified eagle medium with high glucose (DMEM, Thermo Fisher Scientific, NY, USA) containing 10% of fetal bovine serum (FBS, Sigma-Aldrich, MO, USA) and 0.5% streptomycin/penicillin (Cellgro) until reaching 80% of confluency. Then differentiating media containing IFN-gamma (100 ng/ml the above medium) for M1 polarization and IL-4 (100 ng/mL) for M2 polarization were added to the dishes, respectively. After 24 h, the M1 and M2 polarized macrophages were ready for the following experiments.

Series [3] in a line: in vitro relaxivity (r1), Bruker Minispect. It counts as physicochemical. The protocol:
Relaxation time (T1) of Mann2-DTPA-Gd/MannGdFish at concentrations of 0.1, 0.2, 0.3, 0.5, 0.6, 0.75, and 1 mM in PBS was measured on the Bruker Minispect (Bruker Analytics, MA) at 0.47 T (20 MHz) at 40° C. The slope value of the linear function of 1/T1 (s) to their corresponding concentrations is defined as the relaxivity (n=3 for each concentration).

The test system of another series is CD206+ TAMs. Put plainly: MR imaging of experimental glioma. It counts as in vivo, mouse. As to conditions: third week, 30 and 60 min post-injection. The protocol: Eight-to nine-week-old C57BL/6J female mice were used for MRI of wound healing and glioma (Jackson Laboratory, ME). The generation of wound healing and glioma is described in Examples 14 and 15, respectively. The mice with subcutaneous wounds were imaged on days 1, 4, and 7 longitudinally or on day 7. Mice with glioma were imaged on the third week. […] Regions of interest (ROIs) were drawn and the contrast-to-noise ratios (CNRs, CNRpre-contrast subtracted) were calculated by a radiologist with over 20 years of experience blinded to the identity of the imaging agent used and the strain of the mice (n=3 per group). […]
Eight- to nine-week-old C57BL/6J female mice were used in this experiment (Jackson laboratory, ME). […] The mice then were monitored daily for signs of discomfort or neurological symptoms.

Series [4] concerns CD206+ macrophages. Put plainly: MR imaging in mouse model of cutaneous wound healing. It is filed as in vivo. How it is done: Eight-to nine-week-old C57BL/6J female mice were used for MRI of wound healing and glioma (Jackson Laboratory, ME). The generation of wound healing and glioma is described in Examples 14 and 15, respectively. The mice with subcutaneous wounds were imaged on days 1, 4, and 7 longitudinally or on day 7. Mice with glioma were imaged on the third week. All the mice were imaged pre- and at 0, 15, 30, 45 and 60 min after 0.3 mmol/kg of Mann2-DTPA-Gd or MannGdFish was administered intravenously via a tail vein using serial T1 rapid acquisition with relaxation enhancement (RARE) sequence (TR: 935.77 ms, TE: 13.59 ms, averages: 12, rare factor: 4, 256×256×48 matrix size, 0.156×0.156×1 mm^3 voxel size) with chemical fat suppression using a Hermitian pulse shape with an 8.253 ms pulse and 701.19 Hz bandwidth 3.5 ppm down from the water peak and respiratory gating on a 4.7 T small animal MR scanner (Bruker, Cambridge, MA) with a 3 cm quadrature volume coil (Rapid MR International, Germany). Regions of interest (ROIs) were drawn and the contrast-to-noise ratios (CNRs, CNRpre-contrast subtracted) were calculated by a radiologist with over 20 years of experience blinded to the identity of the imaging agent used and the strain of the mice (n=3 per group).
Wound healing procedure. Seven-to ten-week-old C57BL/6J female mice (The Jackson Laboratories, ME) and mannose-receptor deficient mice were used in this study. A circular outline on the back of a mouse was made with a 4 mm biopsy punch (Kai Medical, Japan) under anesthesia using isoflurane. Then a full-thickness excisional wound was generated that extended through the subcutaneous tissue. A silicone splint was glued over the wound, anchored with 6-0 nylon sutures, and covered with a transparent occlusive dressing (OpSite). Xylazine/norepinephrine (100 μL) were intraperitoneally injected twice a day for two days and the mice were monitored daily.

The source of these data is patent US20260183432A1, “IMAGING AGENTS FOR DETECTING CD206+ MACROPHAGES” (THE GENERAL HOSPITAL CORPORATION, priority 2022, published 2026).

“Also recorded” adds a separate entry of the source. Where two headings read alike, the source gives them in different places.

For the compound `O=C([O-])CN(CCN(CC(=O)[O-])CC(=O)NC1C(O)OC(CO)C(O)C1O)CCN(CC(=O)[O-])CC(=O)NC1C(O)OC(CO)C(O)C1O.[Gd+3]` (stereo not drawn) [Mann2-DTPA-Gd], the “CNR on day 7 compared to day 4” value with CD206+ macrophages [1] is 2- to 3 fold; in the series on CD206+ macrophages [4] (45 min post-injection, wildtype mouse), “about two-fold”. Further, the “amount of gadolinium on M2 macrophages versus M1 macrophages and HEK293 cells” value in series [2] was “much higher than that on M1 macrophages and HEK293 cells; also recorded: markedly higher than that in M1 macrophages and HEK293 cells”. Also, the “relaxivity (r1)” value in series [3] amounted to 3.6 mmol⁻¹ s⁻¹; in series [3] (in PBS, 0.47 T, 40° C.) it was 3.6 mM⁻¹ s⁻¹. Besides, the “contrast enhancement of glioma” value in the series with CD206+ TAMs was “Substantial contrast enhancement”. For the same compound, the “CNR on day 7 versus days 1 and 4” value in the series with CD206+ macrophages [4] (60 min post-injection, longitudinal imaging) was “much higher compared to that on days 1 and 4”. In addition, the “signal intensity / CNR time course” value with CD206+ macrophages [4] (mannose receptor-knockout mice, day 7, 0.3 mmol/kg) was “decreased significantly after 15 min post-injection compared to that in wildtype mice; also recorded: decreased over time after initially peaking at 15 min post-injection”. Further, the “contrast-to-noise ratio (CNR) time course” value in the series with CD206+ macrophages [4] (wildtype mice, day 7 after wound induction) is on record as “increasing over time until 45 min post-injection prior to slowly decreasing; also recorded: slow decrease of CNR”.
